From patent publication US20130071897A1, “METHOD FOR CONTROLLING UNDESIRABLE BYPRODUCTS FORMATION CAUSED BY CONTAMINATING ORGANISMS IN THE PRODUCTION OF ETHANOL FROM SYNGAS” (COSKATA, INC., priority 2011, published 2013) come the findings set out here.

In test [1] the test system is Clostridium tyrobutyricum. The test can be described thus: Serum bottle batch fermentation of Clostridium tyrobutyricum on fructose, optical density. The conditions noted are these: duplicates A and B. Format: cell-based. The procedure:
Ethyl 3-(trifluoromethyl)benzoate is evaluated in a series of batch fermentations to determine the growth response of butyrogens to the presence of this compound at varying concentrations. The batch fermentations are conducted by anoxically filling 100 mL serum bottles with 15 mL of media having the composition given in Tables 12 and 13. About 0.15 mL of a 50% w/w solution of fructose in water (final fructose concentration about 5 g/L) is provided in the bottles. Duplicate runs are conducted for each concentration.
(§1) Each bottle is inoculated with 1.5 mL of seed culture inoculum of the strict butyrogen Clostridium tyrobutyricum, which has an OD of about 0.40 (which upon a 10 times dilution provides a starting OD for the fermentation of about 0.04). The bottles are maintained at a temperature of 37° C. Two hours after inoculation of the bottles with the bacteria, the compound is added to different bottles as a solution in 50 μL of N-methylpyrrolidone in the amounts indicated in Table 15. The fermentation process is allowed to progress at 37° C. At selected intervals of time, bacterial growth is measured by reading the optical density (OD) of the fermentation liquid. Optical density is measured by anoxically removing an aliquot of fermentation liquid and adding it to a disposable cuvette. OD's ranging between 0.01 and 0.4 are measured directly, while OD's greater than 0.4 are measure after performing a 1/10 dilution with water.
In this example ethyl 4,4,4-trifluoro-3-(trifluoromethyl)crotonate and ethyl 3-trifluoromethyl-4-methoxybenzoate are evaluated by batch fermentation. The batch fermentations are conducted by anoxically filling 100 mL serum bottles with 15 mL of media having the composition given in Tables 12 and 13. About 0.15 mL of a 50% w/w solution of fructose in water (final fructose concentration about 5 g/L) is provided in the bottles. Duplicate runs are conducted for each concentration.
as §1, with “of about 0.42 (which upon” for “of about 0.40 (which upon”, “of about 0.042). The bottles” for “of about 0.04). The bottles”, “in Table 16 and 17. The fermentation” for “in Table 15. The fermentation”, “0.4 are measured after performing” for “0.4 are measure after performing”

In another test the test system is acyl-CoA dehydrogenases. Nature of the test: In vitro acyl-CoA dehydrogenase ferrocenium assay with C. tyrobutyricum cell-free extract. It is filed as biochemical. Particulars: 0.5 to 10 mM compound; rate of ferrocenium reduction at 300 nm. How it is done: Lehman, et al., in An Acyl-Coenzyme A Dehydrogenase Assay Utilizing the Ferricenium Ion, Analytical Biochemistry 186, pages 280-284 (1990), disclose an in vitro assay screening technique for acyl-CoA dehydrogenases for determining enzyme deficiencies in children. An adaptation of this technique was explored as a potential screening method for ascertaining potential butyrogen inhibitors. An aqueous assay liquor is prepared such that each 1 milliliter sample contains 50 mM of TrisHCl buffer (pH 7.6); 0.05 mM of butyryl-CoA; 5 micromoles of FAD (flavin adenine dinucleotide) and 0.4 mM of ferrocenium. Whole cells of C. tyrobutyricum are lysed and are added to the assay liquor. […] The abbreviation mM stands for millimolar. To assure metabolic consistency among the samples a master batch of C. tyrobutyricum is prepared and harvested at the early log growth stage (approximate O.D. of between about 0.5 and 0.7). The master batch fermentation broth is centrifuged and rinsed with 50 mM TrisHCl buffer (pH 7.6), centrifuged and reconstituted with 50 mM TrisHCl buffer (pH 7.6) to be 10 times more concentrated than the original master batch. Aliquots of about 0.5 milliliter are placed into cryogenic vials (about 1.8 milliliter capacity) and frozen at −80° C. until needed. When needed, a vial is placed in an anoxic Coy chamber and allowed to thaw to room temperature. Once thawed, the cells are added to a 15 mL centrifuge tube and diluted with 0.5 mL of a 2 mg/mL solution of lysozyme (purchased from Aldrich) in 50 mM Tris-HCl (final concentration of lysozyme is about 1 mg/mL). The centrifuge tube is inverted 5 times, removed from the Coy chamber and allowed to incubate at 37° C. for 30 minutes. […] The centrifuge tube is vortexed in the Coy chamber for about 30 seconds, removed from the chamber and centrifuged for 15 minutes at 4000 rpm and 4° C. The tube is returned to the chamber and the cell-free extract (supernatant) is used to prepare the above described samples. The samples are analyzed at various times by absorbance spectroscopy at 300 nm using a Thermo Scientific Evolution 300 UV/Vis spectrophotometer with a 7-cuvette carousel and Starna quartz cuvettes with a septum cap to determine the amount of reduction of ferrocenium. The sample is at laboratory temperature and is maintained under anaerobic conditions. Typically, the absorbance is measured over a period of about 10 to 20 minutes which is sufficient time for the absorbance to stop changing. A linear slope of the rate of change in absorbance during the period that the absorbance is changing is determined using Microsoft Excel® 2010 linear regression to generate a straight line from the data points. The more gradual the slope, the better inhibition because the enzyme is slower at reducing the ferrocenium in the assay sample. A dose-response curve is then determined for each compound by plotting the linear slope against the respective compound concentration. A linear slope is then determined for each compound using Microsoft Excel® 2010 linear regression to generate a straight line from the data points. The steeper the dose-response slope, the better the inhibition because the increased concentration of the compound causes more of a difference in enzyme activity. The dose-response slope generally has a broad standard of deviation due to experimental imprecision and slope determinations.

For test [2], the system named is Clostridium tyrobutyricum. The test can be described thus: Butyric acid by gas chromatography in Clostridium tyrobutyricum batch fermentations. Format: cell-based. Particulars: 500 ppm; at 11 hours. How it is done: The concentration of butyric acid is determined by gas chromatography for several of the above samples at the stated points in time. The butyrate production is calculated based upon peak area calculations generated by the gas chromatograph. At 11 hours, the concentration of butyric acid for each of the controls is about 0.95 gram per liter, and the concentration of butyric acid for the samples containing 500 ppm of the inhibitor are about 0.6 gram per liter.
The concentration of butyric acid is determined by gas chromatography using the procedure set forth in Example 13. The control is reported only in Table 18.

Molecules are shown by their SMILES. Values joined by “and” are separate entries in the source; they are usually repeats but may differ in a detail not shown here. Identical values can stand only once.

As to `CCOC(=O)c1cccc(C(F)(F)F)c1` [Ethyl 3-trifluormethylbenzoate], the “O.D. Response to Varying Inhibitor Concentrations” value in test [1] (500 ppm, 0 Hours, added 2 h after inoculation) is 0.04; in test [1] (500 ppm, 2 Hours, added 2 h after inoculation), 0.09; in test [1] (500 ppm, 3.5 Hours), 0.14; in test [1] (500 ppm, 5.25 Hours, listed as Ethyl 3-(trifluoromethyl)benzoate) it was 0.21 and 0.23; in test [1] (500 ppm, 11 Hours, listed as Ethyl 3-(trifluoromethyl)benzoate) it was 0.90 and 0.89; in test [1] (500 ppm, 20.5 Hours, listed as Ethyl 3-(trifluoromethyl)benzoate), 1.53 and 1.44. Moreover, the “O.D. Response to Varying Inhibitor Concentrations” value in test [1] (1000 ppm, 0 Hours, added 2 h after inoculation) is 0.04; in test [1] (1000 ppm, 2 Hours, added 2 h after inoculation), 0.09; in test [1] (1000 ppm, 3.5 Hours), 0.15; in test [1] (1000 ppm, 5.25 Hours, listed as Ethyl 3-(trifluoromethyl)benzoate) it was 0.21 and 0.22; in test [1] (1000 ppm, 11 Hours, listed as Ethyl 3-(trifluoromethyl)benzoate), 0.90 and 0.87; in test [1] (1000 ppm, 20.5 Hours, listed as Ethyl 3-(trifluoromethyl)benzoate) it was 1.42 and 1.37. Moreover, the “Dose-Response Slope” value in the test with acyl-CoA dehydrogenases was 9. In test [2], the “Concentration of butyric acid” value was “about 0.6 gram per liter”.
